The values that follow come from patent US20160002316A1, “SERPINS: METHODS OF THERAPEUTIC BETA-CELL REGENERATION AND FUNCTION” (SANOFI, priority 2013, published 2016).

The subject of data set [1] is primary mouse islets β-cells. As to the kind of experiment: Mouse islets cultured with recombinant SerpinB1, ovalbumin or elastase inhibitors, Ki67 immunostaining. In kind it is cell-based. To be noted: for mouse islet β-cell proliferation in vitro: Sivelestat (50 μg/ml) or GW311616A (100 μg/ml), FIG. 25 C. The method, then:
Five to six-week old male mouse islets were cultured in the presence of different molecules for 48 h. Islet β-cell replication was assessed by Ki67 immunostaining studies. A) Representative images of islets stimulated with 100 or 1000 ng/ml of human recombinant SerpinB1. B) Quantification of Ki67+ insulin+ cells in islets stimulated with 1 to 1000 ng/ml of rSerpinB1 or 1000 ng/ml of ovalbumin (OVA). C) Representative images (left panel) and quantification (right panel) of Ki67+ insulin+ islet cells stimulated with Sivelestat (50 μg/ml) or GW311616A (100 μg/ml). D) Representative images of human islets stimulated for 24 hours with Sivelestat or GW311616A or control conditions.
To test whether SerpinB1 is a β-cell growth factor, we cultured freshly isolated primary mouse islets in presence of various doses of recombinant human SerpinB1 or ovalbumin (SerpinB14) and evaluated β-cell proliferation by Ki67 immunofluorescent staining (known to those of ordinary skill in the art).
To address whether SerpinB1 acts directly to stimulate β-cell proliferation, we cultured mouse islets in the presence of various doses of human recombinant SerpinB1 and a control (ovalbumin), and evaluated β-cell proliferation by Ki67 immunofluorescence staining (FIG. 21 A).
(§1) A major substrate of SerpinB1 is neutrophil elastase. To investigate whether the proliferative action of SerpinB1 is mediated by antagonizing neutrophil elastase activity, we assessed the ability of the neutrophil elastase inhibitor, Sivelestat (Sivelestat is the International Nonproprietary Name (INN) as given by the World Health Organization (WHO); the chemical name is: N-{2-[({4-[(2,2-dimethylpropanoyl)oxy]phenyl}sulfonyl)amino]benzoyl}glycine), to stimulate islet β-cell proliferation in vitro.

Data set [2] has as its system human islet β cells. As to the kind of experiment: Human islet studies, Ki67+ insulin+ cells. In kind it is cell-based. The note with it: human islets, 24 hr. As to the method: Human islets were obtained from the Integrated Islet Distribution Program. All studies and protocols used were approved by the Joslin Diabetes Center's Committee on Human Studies (CHS#5-05). Upon arrival, islets were cultured overnight in Miami Media #1A (Cellgro). The islets were then starved in Final Wash/Culture Media (Cellgro, Manassas, Va.) for 3 hr prior to stimulation with serum (diluted to 10% v/v), LECM (diluted to 10% v/v), or HCM (diluted to 50% v/v) or Miami Media #1A supplemented with Sivelestat or GW311616A for 24 hr. Islets were used for immunostaining studies as described (El Ouaamari, et al., 2013).
Pancreases and islets were analyzed by immunostaining using anti-Ki67 (BD), anti-insulin (Abcam, Cambridge, Mass.), or anti-glucagon (Sigma-Aldrich, St. Louis, Mo.) antibodies. Quantification of replicating β- and α-cells was performed as described previously (El Ouaamari, et al., 2013).
In all experiments, cell counting was manually performed in a blinded fashion by a single observer. BrdU+ or Ki67+ β cells were assessed by immunofluorescence microscopy. Insulin+ cells showing nuclear DAPI staining were considered as β cells. Insulin+ cells showing nuclear colocalized staining for DAPI+ and Ki67+(or BrdU+) were counted as proliferating β cells. […]

Data set [3] deals with islet β-cells. As to the kind of experiment: Daily oral gavage of GW311616A for 2 weeks, β-cell mass and replication. In kind it is in vivo, mouse. To be noted: 2 mg/kg/day. As to the method: (§2) Five to six-week old mice were administrated with Sivelestat or GW311616A for 2 weeks. Islet β-cell and α-cell replication was assessed by immunostaining. A) Schematic of the experimental protocol of Sivelestat administration. B) Quantification of pancreatic sections harvested from animals stimulated with Sivelestat and immunostained for insulin/BrdU/DAPI or glucagon/BrdU/DAPI. C) Schematic of the experimental protocol of GW311616A delivery. D) Quantification of pancreatic sections dissected from GW311616A-treated males and immunostained for insulin/BrdU/DAPI or glucagon/BrdU/DAPI.
Five to six-week old male mice were daily gavaged with GW311616A or vehicle (water) for 2 weeks. Mice were injected during the second week with BrdU (100 mg/kg Body weight) and sacrificed 5 hour after last injection of BrdU. Pancreases and other tissues were harvested for morphometric studies. A) Schematic of the experimental protocol of GW311616 administration. B) Pancreatic sections harvested from animals stimulated with GW311616 were immunostained for insulin/BrdU/DAPI (upper panel) or glucagon/BrdU/DAPI (lower panel). C) Quantification of β-cell mass. D) Quantification of insulin+BrdU+ cells. E) Quantification of glucagon+BrdU+ cells. F-G) Representative images and quantification of nuclei BrdU+ in liver, kidney, spleen, visceral and subcutaneous adipose tissue and skeletal muscle tissue.
To explore whether increased β-cell replication secondary to enhanced SerpinB1 activity can be recapitulated in vivo, we used pharmacological compounds Sivelestat (Kawabata, et al., 1991) and GW311616A (Macdonald, et al., 2001), that are selective inhibitors of elastase, one of the major substrates of SerpinB1. Using osmotic pumps, we delivered a continuous infusion of Sivelestat for a 2-week period followed by evaluating the number of replicating β-cells by BrdU incorporation (FIG. 20A). […] In a second approach we gavaged mice with the NE inhibitor, GW311616A, at a dose of 2 mg/kg/day for 2 weeks (FIG. 20C and FIG. 22 A). […] Moreover, cell proliferation was not increased in extra-pancreatic tissues including liver, skeletal muscle, visceral and subcutaneous adipose tissue, spleen and kidney (FIGS. 22 F & G).
For Sivelestat administration, mice were anesthetized, and osmotic pumps (ALZET) containing 100 μl of either vehicle or Sivelestat (Santa Cruz) were implanted subcutaneously. Sivelestat was dissolved in 50% DMSO and was administered at a dose of 150 or 300 μg/kg/day. Control mice were infused with DMSO 50% alone. GW311616A was administered into mice by daily oral gavage for two weeks. Mice received either GW311616A (2 mg/kg body weight) or vehicle.

Data set [4] has as its system human (EndoC-βH1) β-cells. As to the kind of experiment: EndoC-βH1 cells treated with Sivelestat, Ki67. Type of data set: cell-based. To be noted: 100 μg/ml.
Text: as §1

Data set [5] relates to islet β-cells. As to the kind of experiment: Continuous infusion of Sivelestat by osmotic pump for 2 weeks, β-cell replication. In kind it is in vivo, mouse. The note with it: 2-week infusion. The method, then:
as §2
Five to six-week old male mice were continuously infused for 2 weeks with vehicle or Sivelestat at 150 or 300 μg/kg/day. Mice were injected during the second week with BrdU (100 mg/kg Body weight) and sacrificed 5 hour after last injection of BrdU. Pancreases were harvested for morphometric studies. A-B) Representative images and quantification of nuclei BrdU+ in insulin+ cells. C-D) Representative images and quantification of nuclei pHH3+ in insulin+ cells. E-F) Representative images and quantification of nuclei BrdU+ in glucagon+ cells. […]

With `CC(C)[C@@H]1C(=O)N(S(C)(=O)=O)[C@@H]2CCN(C(=O)/C=C/CN3CCCCC3)[C@H]21.Cl` [GW311616A], the “mouse islet β-cell proliferation in vitro” value in data set [1] was “directly increased”. Further, in data set [2], the “number of replicating insulin-producing cells (Ki67+ insulin+)” value was “significantly higher”. Also, in data set [3], the “cell proliferation in extra-pancreatic tissues (liver, skeletal muscle, visceral and subcutaneous adipose tissue, spleen, kidney)” value is on record as “not increased”; the “α-cell proliferation by BrdU incorporation” value is “not α-cell proliferation”; the β-cell mass result is listed as “significantly enhanced β-cell mass”; the “β-cell proliferation by BrdU incorporation” value is listed as “increased β-cell proliferation”.

Regarding `CC(C)(C)C(=O)Oc1ccc(S(=O)(=O)Nc2ccccc2C(=O)NCC(=O)O)cc1` [Sivelestat, N-{2-[({4-[(2,2-dimethylpropanoyl)oxy]phenyl}sulfonyl)amino]benzoyl}glycine], the “mouse islet β-cell proliferation in vitro” value in data set [1] is recorded as “directly increased”. The “number of proliferating insulin+ cells” value in data set [1] (higher doses, e.g. 10 and 50 μg/ml) is listed as “substantial increase”. Further, the β-cell proliferation entry in data set [1] (low doses 1 and 5 μg/ml) was “do not enhance β-cell proliferation”. For the same molecule, the “number of Ki67 positive β-cells compared to non-treated cells” value in data set [4] was “increased the number”. Further, the “proliferation of glucagon-producing α-cells” value in data set [5] (300 μg/kg/day) is recorded as “did not significantly alter”. Besides, in data set [5], the “effect on β-cells by pHH3 staining” value is reported as “confirmed by pHH3 staining”. Also, the “number of replicating insulin-producing cells (Ki67+ insulin+)” value in data set [2] is reported as “significantly higher”.

B1: ovalbumin: ovalbumin (SerpinB14), control protein (protein, UniProt P01012 2-386, looked up)
Ovalbumin: GSIGAASMEFCFDVFKELKVHHANENIFYCPIAIMSALAMVYLGAKDSTRTQINKVVRFDKLPGFGDSIEAQCGTSVNVHSSLRDILNQITKPNDVYSFSLASRLYAEERYPILPEYLQCVKELYRGGLEPINFQTAADQARELINSWVESQTNGIIRNVLQPSSVDSQTAMVLVNAIVFKGLWEKAFKDEDTQAMPFRVTEQESKPVQMMYQIGLFRVASMASEKMKILELPFASGTMSMLVLLPDEVSGLEQLESIINFEKLTEWTSSNVMEERKIKVYLPRMKMEEKYNLTSVLMAMGITDVFSSSANLSGISSAESLKISQAVHAAHAEINEAGREVVGSAEAGVDAASVSEEFRADHPFLFCIKHIATNAVLFFGRCVSP
On to B1, for which, in data set [1] (1 μg/ml), the “β-cell proliferation (Ki67)” value is “normal low β-cell proliferation”.

B2: SerpinB1: recombinant human SerpinB1, serine peptidase inhibitor B1, 42 kD protein (protein)
chain: MEQLSSANTRFALDLFLALSENNPAGNIFISPFSISSAMAMVFLGTRGNTAAQLSKTFHFNTVEEVHSRFQSLNADINKRGASYILKLANRLYGEKTYNFLPEFLVSTQKTYGADLASVDFQHASEDARKTINQWVKGQTEGKIPELLASGMVDNMTKLVLVNAIYFKGNWKDKFMKEATTNAPFRLNKKDRKTVKMMYQKKKFAYGYIEDLKCRVLELPYQGEELSMVILLPDDIEDESTGLKKIEEQLTLEKLHEWTKPENLDFIEVNVSLPRFKLEESYTLNSDLARLGVQDLFNSSKADLSGMSGARDIFISKIVHKSFVEVNEEGTEAAAATAGIATFCMLMPEENFTADHPFLFFIRHNSSGSILFLGRFSSP
B2: in data set [1] (compared to ovalbumin at a similar concentration), the “concentration at which the increase reached statistical significance” value was 1 µg/mL. In addition, in data set [1] (various doses (1 to 1000 ng/ml), 48 h), the “Ki67+ insulin+ cells” value is “dose-dependent increase”.
